# From PubChem BioAssay AID651880 (NMMLSC, 2012)
# Active and inactive are the calls of the source. The rule behind the calls is not given here.
# Target: Botulinum neurotoxin type F light chain protease (Clostridium botulinum)
# Assay: Botulinum neurotoxin type F light chain protease inhibitors, multiplex microsphere cleavage, dose response (AID 651880)
# Conditions: multiplex microsphere flow cytometry protease cleavage assay
row,SMILES,EC50
1,COc1ccc(N2N=C(c3ccncc3)CC2c2ccccc2)cc1 (centres undefined),> 20 µM (inactive)
2,CSc1ccc(C2=NN(c3ccc([N+](=O)[O-])cc3)C(c3ccccc3)C2)cc1 (centres undefined),0.05 µM
3,CSc1ccc(C2=NN(c3ccc(C(=O)N4CCOCC4)cc3)C(c3ccccc3)C2)cc1 (centres undefined),> 20 µM (inactive)
4,COc1ccc(N2N=C(c3ccc(SC)cc3)CC2c2ccccc2)cc1 (centres undefined),> 20 µM (inactive)
5,CC(C)CNC(=O)c1ccc(N2N=C(c3ccccc3)CC2c2ccccc2)cc1 (centres undefined),> 20 µM (inactive)
6,COc1ccc(N2N=C(c3cccnc3)CC2c2ccccc2)cc1 (centres undefined),> 20 µM (inactive)
7,c1ccc(C2CC(c3ccncc3)=NN2c2ccccc2)cc1 (centres undefined),> 20 µM (inactive)
8,O=C(c1ccc(N2N=C(c3ccccc3)CC2c2ccccc2)cc1)N1CCCCC1 (centres undefined),> 20 µM (inactive)
9,COc1ccc(N2N=C(c3ccccc3)CC2c2ccccc2)cc1 (centres undefined),> 20 µM (inactive)
10,CNC(=O)c1ccc(N2N=C(c3ccc(SC)cc3)CC2c2ccccc2)cc1 (centres undefined),> 20 µM (inactive)
11,COc1ccc(N2N=C(c3ccccn3)CC2c2ccccc2)cc1 (centres undefined),> 20 µM (inactive)
12,CNC(=O)c1ccc(N2N=C(c3ccccc3)CC2c2ccccc2)cc1 (centres undefined),> 20 µM (inactive)
13,O=C(c1ccc(N2N=C(c3ccccc3)CC2c2ccccc2)cc1)N1CCOCC1 (centres undefined),> 20 µM (inactive)
14,c1ccc(-c2cc(-c3ccccc3)n(-c3ccccc3)n2)cc1,> 20 µM (inactive)
15,CSc1ccc(C2=NN(c3ccccc3)C(c3ccccc3)C2)cc1 (centres undefined),> 20 µM (inactive)
16,CS(=O)(=O)c1ccc(N2N=C(c3ccncc3)CC2c2ccccc2)cc1 (centres undefined),> 20 µM (inactive)
17,c1ccc(C2=NN(c3ccccc3)C(c3ccccc3)C2)cc1 (centres undefined),> 20 µM (inactive)
18,CS(=O)(=O)c1ccc(N2N=C(c3cccnc3)CC2c2ccccc2)cc1 (centres undefined),> 20 µM (inactive)
19,NS(=O)(=O)c1ccc(N2N=C(c3cccnc3)CC2c2ccccc2)cc1 (centres undefined),> 20 µM (inactive)
20,c1ccc(C2CC(c3cccnc3)=NN2c2ccccc2)cc1 (centres undefined),> 20 µM (inactive)
21,CSc1ccc(C2=NN(c3ccc(C(=O)N4CCCCC4)cc3)C(c3ccccc3)C2)cc1 (centres undefined),> 20 µM (inactive)
22,CSc1ccc(C2=NN(c3ccc(S(N)(=O)=O)cc3)C(c3ccccc3)C2)cc1 (centres undefined),> 20 µM (inactive)
23,NS(=O)(=O)c1ccc(N2N=C(c3ccncc3)CC2c2ccccc2)cc1 (centres undefined),> 20 µM (inactive)
24,CSc1ccc(C2=NN(c3ccc(S(C)(=O)=O)cc3)C(c3ccccc3)C2)cc1 (centres undefined),> 20 µM (inactive)
25,NS(=O)(=O)c1ccc(N2N=C(c3ccccc3)CC2c2ccccc2)cc1 (centres undefined),> 20 µM (inactive)
26,c1ccc(C2CC(c3ccccn3)=NN2c2ccccc2)cc1 (centres undefined),> 20 µM (inactive)
27,CC(C)NC(=O)c1ccc(N2N=C(c3ccccc3)CC2c2ccccc2)cc1 (centres undefined),> 20 µM (inactive)
28,CS(=O)(=O)c1ccc(N2N=C(c3ccccc3)CC2c2ccccc2)cc1 (centres undefined),> 20 µM (inactive)
29,O=[N+]([O-])c1ccc(N2N=C(c3ccccc3)CC2c2ccccc2)cc1 (centres undefined),0.2 µM
